Test results published in article PMC12787000 (Molecules, 2025).

What was measured:
Assay type in all cases: cell-based
A375 cells = test: MTT cell viability assay, A375; details: 72 h; for Effect on cell viability at single concentration: A375, 25 μM, MTT; for IC50: Homo sapiens, A-375, A375, MTT
Experimental: (§1) A375, MRC-5, and HaCaT cell lines were obtained from the American Type Culture Collection (ATCC). 518A2 cell line was kindly provided by Dr. […]ć. All cell lines were cultured in RPMI 1640 medium supplemented with 2 g/L glucose, 10% fetal bovine serum (FBS), and antibiotics. […] Cell viability was assessed using the MTT assay (Sigma Aldrich, #M5655). […] After 72 h of incubation, absorbance was measured at 570 nm using a Multiskan SkyHigh microplate reader (Thermo Fisher Scientific, Helsinki, Finland). Values were corrected by subtracting the absorbance measured in wells containing cell-free medium with tested compounds.

A375R cells = test: MTT cell viability assay, vemurafenib-resistant A375R; details: for IC50: A375R, MTT, 72 h
Experimental: as §1

[1] = tested on: MRC-5 (fetal fibroblasts); test: MTT cell viability assay, MRC-5; details: Homo sapiens, MRC5; MRC-5, MTT, 72 h
Experimental: as §1

AT1R = molecular target: T1, AT1R (Homo sapiens, UniProt P30556); test: Angiotensin II-induced Ca2+ release, Fluo-4 AM live-cell imaging; details: 2 min; for Effect on AngII-induced Ca2+ increase (combination treatment): A375, 25 μM compound + 1 μM AngII; for Effect of compound alone on baseline Ca2+ signaling: A375, compound alone
T1 construct: endogenous in cells; host or cells: A375 melanoma cells (ATCC)
T1 sequence (P30556 1-359): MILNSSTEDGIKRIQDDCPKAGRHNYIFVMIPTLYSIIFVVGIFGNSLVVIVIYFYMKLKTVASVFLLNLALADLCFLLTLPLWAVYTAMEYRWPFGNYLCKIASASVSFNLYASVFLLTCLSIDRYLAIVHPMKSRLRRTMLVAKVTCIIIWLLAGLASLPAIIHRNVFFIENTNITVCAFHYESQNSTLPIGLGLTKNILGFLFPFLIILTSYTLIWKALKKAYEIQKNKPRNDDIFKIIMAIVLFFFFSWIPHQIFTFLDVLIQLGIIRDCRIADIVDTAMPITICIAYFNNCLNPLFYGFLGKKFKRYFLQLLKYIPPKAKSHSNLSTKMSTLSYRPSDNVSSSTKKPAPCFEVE
Experimental: Fluo-4 AM calcium indicator dye (F14201, Molecular Probes, Eugene, OR, USA) was used to observe Ca^2+ dynamics upon treatment, per manufacturer’s instructions. Briefly, 5000 A375 cells/well were seeded in 96-well optical bottom black cell culture plates (165305, Thermo Scientific). Fluo-4 AM stock solution in DMSO was mixed with equal volume of 20% Pluronic F-127 to assist in dispersion of AM esters before dilution into the loading medium. Twenty-four hours after seeding medium was removed, and cells were washed with HBBS without calcium and magnesium. Cells were stained in HBSS medium with 1.25 μM Fluo-4-AM for 30 min at 37 °C. After incubation, cells were washed and incubated in complete medium (10%FBS RPMI) to allow de-esterification for 30 min and then treated with 1 μM human Angiotensin II (A9525, Sigma Aldrich), 50 μM telmisartan, compounds 1, 3, and 8, or the combinations. Images were taken before addition of the treatment (0 min) and after 2 min of treatment on Zeiss PALM MicroBeam Axio Observer Z1 microscope (Carl Zeiss MicroImaging GmbH, Oberkochen, Germany) with Zeiss LD Plan-Neofluar 20×/0.4 Korr, ∞/0–1.5 mm lens and AxioVision SE64 Rel.4.9.1 software. Experiment was repeated three times. Integrated density of Fluo-4 fluorescence at 2 min of exposure to treatment was calculated with Image J, and normalized to the baseline fluorescence at time 0, in at least two random fields for each condition. Conditions were compared with one-way ANOVA and Tukey’s multiple comparisons test. p < 0.05 was considered statistically significant.

IC50 (A375 cells) [µM]	IC50 (A375R cells) [µM]	SMILES	Effect on cell viability at single concentration (A375 cells)	Selectivity (A375R cells; A375R versus normal cell lines (HaCaT, MRC-5), from IC50 values)	IC50 [1] [µM]	Effect on AngII-induced Ca2+ increase (combination treatment) (AT1R)	Effect of compound alone on baseline Ca2+ signaling (AT1R)
27.2 ± 0.58	8.84 ± 1.24	CCCc1nc2c(C)cc(-c3nc4ccccc4n3C)cc2n1Cc1ccc(-c2ccccc2C(=O)NC(Cc2ccccc2)C(=O)O)cc1 (stereo not shown) [compound 8, 2-{[4′-(1,7′-dimethyl-2′-propyl-1H-[2,5′]bibenzoimidazolyl-3′-ylmethyl)-biphenyl-2-carbonyl]-amino}-3-phenyl-propionic acid]	significant reductions in cell viability	> 3.50	31.5 ± 5.87	did not prevent AngII-induced Ca^2+ increase	no significant changes in the baseline Ca^2+ signaling
32.1 ± 2.38	21.1 ± 6.31	CCCc1nc2c(C)cc(-c3nc4ccccc4n3C)cc2n1Cc1ccc(-c2ccccc2C(=O)NC(Cc2ccc(O)cc2)C(=O)O)cc1 (stereo not shown) [compound 3, 2-{[4′-(1,7′-dimethyl-2′-propyl-1H-[2,5′]bibenzoimidazolyl-3′-ylmethyl)-biphenyl-2-carbonyl]-amino}-3-(4-hydroxy-phenyl)-propionic acid]	significant reductions in cell viability		50.74 ± 0.28	did not prevent AngII-induced Ca^2+ increase	no significant changes in the baseline Ca^2+ signaling
